Patent publication US20100093645A1, “SMAC Peptidomimetics and the Uses Thereof” (priority 2004, published 2010)
Square brackets hold non-standard residues; d marks the D form. Peptide text beside a SMILES is read from it. Abu = CC[C@H](N)C(=O)O

B1: mature Smac protein: second mitochondria-derived activator of caspases, mature polypeptide (protein, UniProt Q9NR28 22-239, looked up)
Diablo IAP-binding …: LCVPVVANFKKRCFSELIRPWHKTVTIGFGVTLCAVPIAQKSEPHSLSSEALMRRAVSLVTDSTSTFLSQTTYALIEAITEYTKAVYTLTSLYRQYTSLLGKMNSEEEDEVWQVIIGARAEMTSKHQEYLKLETTWMTAVGLSEMAAEAAYQTGADQASITARNHIQLVKLQVEEVHQLSRKAETKLAEAQIEELRQKTQEEGEERAESEQEAYLRED

Assays:
[1] = target: T1, human XIAP-BIR3 protein (residues 241-356) (Homo sapiens, UniProt P98170); assay: Competitive fluorescence polarization (FP-based) binding assay with SM5F probe; conditions: SM5 vs S9
Target sequence in this assay (P98170 241-356): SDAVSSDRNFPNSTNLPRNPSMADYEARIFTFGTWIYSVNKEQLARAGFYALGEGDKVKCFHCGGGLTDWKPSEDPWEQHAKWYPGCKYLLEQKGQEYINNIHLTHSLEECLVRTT

[2] = target: T1, human XIAP-BIR3 protein (residues 241-356); assay: biochemical
XIAP = XIAP (Homo sapiens, UniProt P98170); conditions: background statement; cited from earlier work
XIAP, sequence (P98170 whole entry): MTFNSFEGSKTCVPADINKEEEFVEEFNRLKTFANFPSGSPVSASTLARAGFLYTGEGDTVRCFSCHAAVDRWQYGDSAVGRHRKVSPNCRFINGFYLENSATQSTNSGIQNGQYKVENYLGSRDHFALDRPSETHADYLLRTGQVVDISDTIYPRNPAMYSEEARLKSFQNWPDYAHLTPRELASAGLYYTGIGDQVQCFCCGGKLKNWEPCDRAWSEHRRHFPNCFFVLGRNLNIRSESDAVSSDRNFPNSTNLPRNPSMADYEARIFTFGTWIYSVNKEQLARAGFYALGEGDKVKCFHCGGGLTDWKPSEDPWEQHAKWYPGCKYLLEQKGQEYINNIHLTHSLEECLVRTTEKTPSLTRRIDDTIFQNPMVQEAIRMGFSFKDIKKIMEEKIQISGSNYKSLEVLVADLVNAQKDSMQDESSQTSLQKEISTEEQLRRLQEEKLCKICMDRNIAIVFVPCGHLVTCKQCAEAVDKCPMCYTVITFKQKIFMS

Molecule | ratio of the IC50 values for unlabeled SM5 and S9 [1] | IC50 [2] | Ki [2] | Kd (XIAP)
CC[C@H](N)C(=O)N[C@@H](CCCNC(=N)N)C(=O)N1CCC[C@H]1C(=O)N[C@@H](Cc1ccccc1)C(=O)N[C@@H](CCCCN)C(=O)O [SM5, AbuRPFK, reference compound] (H-[Abu]RPFK-OH; N-terminus and C-terminus assumed) | 6.7 fold | 220 ± 10 nM | 75 ± 5 nM | –
B1 | – | – | – | 420 nM
